Reference: publication PMC3022373 (Journal of medicinal chemistry, 2010)

Target: T1, hiCE (Homo sapiens, UniProt O00748)
T1 sequence (O00748 27-559): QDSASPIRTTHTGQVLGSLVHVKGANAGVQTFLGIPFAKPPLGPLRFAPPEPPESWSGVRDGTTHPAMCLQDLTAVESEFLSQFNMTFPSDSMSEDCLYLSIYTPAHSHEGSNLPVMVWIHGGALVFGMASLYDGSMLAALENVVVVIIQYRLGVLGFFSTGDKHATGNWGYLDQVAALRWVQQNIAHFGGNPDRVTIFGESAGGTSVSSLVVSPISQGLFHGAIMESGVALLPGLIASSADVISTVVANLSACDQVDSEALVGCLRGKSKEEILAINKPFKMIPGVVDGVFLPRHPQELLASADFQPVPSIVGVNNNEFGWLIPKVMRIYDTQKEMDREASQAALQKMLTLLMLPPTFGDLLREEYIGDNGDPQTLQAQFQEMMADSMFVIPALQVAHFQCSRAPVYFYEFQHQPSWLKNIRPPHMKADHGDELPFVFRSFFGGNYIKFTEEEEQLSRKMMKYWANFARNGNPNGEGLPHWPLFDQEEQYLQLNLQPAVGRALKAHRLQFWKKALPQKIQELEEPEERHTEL
Assay type: biochemical

| Structure (SMILES) | selectivity in favor of hiCE inhibition versus hCE1 |
| --- | --- |
| O=C(Nc1cccc(C(=O)C(=O)c2ccccn2)c1)c1ccc(C(F)(F)F)cc1 [15f] | ≥ 100 fold |
| O=C(C(=O)c1ccccn1)c1cccc(NC(=O)c2ccc(Cl)cc2Cl)c1 [15d] | ≥ 100 fold |
